Article PMC8233136, “Monomeric bile acids modulate the ATPase activity of detergent-solubilized ABCB4/MDR3” (Journal of Lipid Research, 2021)
Several values for one entry are separate records, joined by “and”; a condition that tells them apart may be missing. Equal values may be shown once.

What was measured:
human ABCB4 [1] = biological target: T1, human ABCB4 (Homo sapiens, UniProt P21439); assay: ATP hydrolysis (malachite green) of detergent-solubilized, purified ABCB4: modulation of basal ATPase activity; type: biochemical; settings: for Slope: Hill coefficient of allosteric sigmoidal fit of ATPase stimulation; for EC50: stimulation of basal ATPase activity, allosteric sigmoidal fit; for EC50 / Emax / Concentration at which maximal stimulation (plateau) of ATPase activity is reached / Max. Stimulation (%): 0-1,000 μM; for Emax / Max. Stimulation (%): basal ABCB4 ATPase activity set to 0%; for Concentration at which maximal stimulation (plateau) of ATPase activity is reached: basal ATPase activity
T1 construct: made in house; host or cells: Pichia pastoris (chromosomally integrated)
Procedure: (§1) The sodium salts of conjugated and unconjugated bile acids were dissolved in double-distilled water (ddH2O) or 100% DMSO at a concentration of 100 mM. While glyco-/tauro-/cholic acid (G/T/CA), glyco-/tauro-/chenodeoxycholic acid (G/T/CDCA) were dissolved in ddH2O water, glyco-/tauro-/deoxycholic acid (G/T/DCA), glyco/-tauro-/ursodeoxycholic acid (G/T/UDCA) as wells as Nor-UDCA and taurolithocholic acid (TLCA) were dissolved in DMSO. […] Modulation of the ATP hydrolysis by bile acid was determined in a concentration-dependent manner from 0 to 1,000 μM bile acids.
(§2) Analysis of the ATP activity of ABCB4 was performed by determining the amount of released, free inorganic orthophosphate by the malachite green assay ([53], [54], [60]) with minor modifications. The assay was performed in a total volume of 100 μl consisting of reaction buffer (50 mM Tris HCl, pH 7.4 at 37°C, 100 mM NaCl) supplemented with the 2.5 × cmc of FC-16 and 10 mM MgCl2. For determining the effect of DOPC, different bile acids or combinations thereof, 1–5 μL of the corresponding stock solutions (see lipid and bile acid preparation) were added. Five micrograms of ABCB4 or the BODIPY®-labeled sample was used in every reaction sample. Reaction was started by addition of ATP (5 mM f.c.) and performed for 40 min at 37°C. After 0 and 40 min, the reaction was stopped by transferring 25 μl of the reaction mixture into a 96-well plate containing 175 μl of 20 mM ice-cold sulfuric acid. Additionally, a phosphate standard with concentrations raging from 0 to 500 μM was used. Subsequently, inorganic phosphate was stained by adding 50 μl of dye (0.096% (w/v) malachite green, 1.48% (w/v) ammonium molybdate, 0.173% (w/v) Tween-20, and […] sulfuric acid). After incubation for 15 min, the absorption at 595 nm was measured (iMark™ Microplate Reader, BioRad), and the concentrations of phosphate release were calculated based on the slope of the line calculated based on the phosphate standards.
(§3) Basal ATPase activity of ABCB4 was set to 0% and the effect of supplements was calculated as % stimulation or % inhibition of the basal activity, respectively. For determination of kinetic parameters, bile acid concentration was varied and analyzed according to an allosteric sigmoidal fit (Equation 1):(1) v=vmax∗[S]^h/EC50h+[S]^h
Here, v describes the stimulation (%), vmax is the maximal stimulation (%), EC50 represents the half maximal effective concentration, S is the substrate concentration, and h is the Hill coefficient
In case of inhibition, the reduction (%) was plotted against the bile acid concentration and data were analyzed using Equation 2:(2) y=ymin+(ymax−ymin)/1+10^((logIC50−x)∗slope)
Here, ymax is the smallest, and ymin is the highest amount of inhibition, respectively, and x represents the concentration of the inhibitor. The IC50 value is defined as the concentration necessary to obtain 50% inhibition.
In case of both substrate stimulations, followed by substrate inhibition after maximal stimulation was reached, the modulation (%) was plotted against the substrate concertation and data was analyzed using by two fits: First part (stimulation) was as usually fitted using Equation 1. The second part (substrate inhibition) was analyzed by Equation 3 starting at the last point of the plateau:(3) y=ymin+[…]/(1+x/IC50)
Here, ymax is the highest value of the plateau after stimulation is reached, while ymin is the smallest value of y after maximal stimulation was reached.

human ABCB4 [2] = biological target: T1, human ABCB4; assay: ATP hydrolysis (malachite green) of purified ABCB4 in the presence of 300 μM DOPC (with or without cholesterol); type: biochemical; settings: for activity at 1000 µM / Relative ATPase activity in the presence of 300 μM DOPC: 1,000 μM bile acid/detergent/BAM + 300 μM DOPC; for activity at 1000 µM: read-out: Relative ATPase activity in the presence of 300 μM DOPC; for Decrease of DOPC-stimulated ATPase activity: 1,000 μM + 300 μM DOPC, relative to DOPC alone
Procedure: A sample of purified ABCB4 was incubated with 10-fold molar excess of BODIPY® FL maleimide (BODIPY® FL N-(2-aminoethyl)maleimide, Molecular Probes) at 22°C for 20 min. The reaction was quenched after 20 min by addition of a 20-fold molar excess of dithiothreitol (DTT) at 22°C for 10 min. Qualitative labeling efficiency was analyzed by visualizing a sample after SDS-PAGE by UV excitation.
DOPC was dissolved in chloroform, the solvent was evaporated, and the dried lipid sample was redissolved in ATP hydrolysis reaction buffer (50 mM Tris HCl, pH 7.4 at 37°C, 100 mM NaCl) at a concentration of 25.4 mM following the protocol of Geertsma et al. ([59]). Prior to the addition of the DOPC sample to the ATP hydrolysis assay, it was diluted to 5 mM, sonicated until a clear solution was obtained, and subsequently used at a final concentration of 300 μM. Since chloroform is not suitable for the later ATPase assay and cholesterol at higher concentration is insoluble in water and nearly all solvents, a molar mixture of cholesterol and DOPC was used. This mixture was obtained by adding the required molar ratio of cholesterol to always the same amount of dried DOPC. Afterward, the mixture was treated identical to DOPC only as described above resulting in a final concentration (f.c.) of 300 μM DOPC with 0–1,000 μM cholesterol in the ATPase assay.
as §1, §2, §3

[3] = Critical micelle concentration by Hoechst 33342 fluorescence in ATPase reaction buffer; type: physicochemical; settings: 50 mM Tris-HCl pH 7.5, 100 mM NaCl, 37°C; no FC-16, MgCl2 or ATP
Procedure: CMC values were determined as described ([61]). […] 96-well plates suitable for fluorescence spectroscopy (Greiner Bio-One, FIA plate, black, flat bottom, medium binding) were used. […] CMCs of the bile acids were determined in ATPase reaction buffer (50 mM Tris-HCl, pH 7.5 (at 37°C), 100 mM NaCl) containing no FC-16, MgCl2, or ATP at 37°C using a Tecan M200 plate reader (Atlantic lab equipment). Bile acids were dissolved either in ddH2O or in 100% DMSO (as stated in “Lipid, cholesterol and bile acid preparation”) at a concentration of 100 mM. […] In case of hydrophobic bile acids, which were dissolved in DMSO, DMSO concentration was adapted to 1% in all wells. […] After background correction, fluorescence data were analyzed using Prism (version 8, GraphPad) with Equation 4:(4) F=Fmax∗(c[BA]−cmc)/(K0.5−cmc)+(c[BA]−cmc)
The measured fluorescence at each bile acid concentration (c[BA]) is represented by F, while Fmax is the maximal fluorescence, K0.5 is the midpoint of the function, and cmc is the critical micelle concentration of the bile acid.

[4] = vmax of allosteric sigmoidal fit (Equation 1), read-out: Max. Stimulation (%)
[5] = basal = 0%, negative = inhibition, duplicates
[6] = vmax of allosteric sigmoidal fit (Equation 1)

T1 sequence (P21439 1-1279 isoform P21439-2): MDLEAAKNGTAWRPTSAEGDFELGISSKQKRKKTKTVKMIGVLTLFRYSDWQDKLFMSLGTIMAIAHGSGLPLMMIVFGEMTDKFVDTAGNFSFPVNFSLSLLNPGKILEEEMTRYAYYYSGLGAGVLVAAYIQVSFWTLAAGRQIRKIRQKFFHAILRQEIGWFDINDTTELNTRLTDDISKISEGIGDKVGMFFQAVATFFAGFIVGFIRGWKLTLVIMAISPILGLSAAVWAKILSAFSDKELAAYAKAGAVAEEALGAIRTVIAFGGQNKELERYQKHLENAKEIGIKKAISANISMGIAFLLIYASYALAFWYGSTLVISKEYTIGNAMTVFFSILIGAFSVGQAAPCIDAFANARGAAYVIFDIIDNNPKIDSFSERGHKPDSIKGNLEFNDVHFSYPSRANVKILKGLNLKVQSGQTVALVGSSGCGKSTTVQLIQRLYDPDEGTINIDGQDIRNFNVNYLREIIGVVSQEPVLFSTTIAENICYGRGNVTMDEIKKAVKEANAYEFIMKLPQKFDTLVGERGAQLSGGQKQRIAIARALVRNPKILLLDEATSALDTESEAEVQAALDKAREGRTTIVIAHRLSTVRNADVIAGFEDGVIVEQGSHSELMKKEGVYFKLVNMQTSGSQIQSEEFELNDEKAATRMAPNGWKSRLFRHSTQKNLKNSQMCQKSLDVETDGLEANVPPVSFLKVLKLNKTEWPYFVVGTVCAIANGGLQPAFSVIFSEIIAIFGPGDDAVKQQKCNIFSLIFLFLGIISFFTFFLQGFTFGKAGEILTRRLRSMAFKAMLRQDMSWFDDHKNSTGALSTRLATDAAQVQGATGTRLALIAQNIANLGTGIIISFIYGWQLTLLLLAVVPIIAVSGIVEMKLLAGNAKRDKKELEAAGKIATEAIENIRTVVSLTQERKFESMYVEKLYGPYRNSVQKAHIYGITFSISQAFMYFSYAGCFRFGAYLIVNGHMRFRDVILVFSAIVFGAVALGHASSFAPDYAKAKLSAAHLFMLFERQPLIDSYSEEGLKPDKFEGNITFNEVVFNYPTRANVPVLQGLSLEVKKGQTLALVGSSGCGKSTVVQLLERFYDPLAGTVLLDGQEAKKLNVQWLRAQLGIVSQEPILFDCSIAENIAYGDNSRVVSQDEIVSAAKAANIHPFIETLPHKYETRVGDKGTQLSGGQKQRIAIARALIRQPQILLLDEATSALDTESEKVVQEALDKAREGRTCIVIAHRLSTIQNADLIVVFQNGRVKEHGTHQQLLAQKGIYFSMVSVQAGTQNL

| Emax (human ABCB4 [1]; [4]) [%] | activity at 1000 µM (human ABCB4 [2]; DOPC alone set to 100%) [%] | Critical micelle concentration (cmc) [3] | SMILES | Slope (human ABCB4 [1]) | EC50 (human ABCB4 [1]; read-out: EC50) [µM] | Concentration at which maximal stimulation (plateau) of ATPase activity is reached (human ABCB4 [1]) | other results |
| --- | --- | --- | --- | --- | --- | --- | --- |
| 137 ± 16.8 | 89.7 ± 1.4 | 1.5 mM and 1.5 ± 0.1 mM | C[C@H](CCC(=O)O)[C@H]1CC[C@H]2[C@@H]3[C@H](O)C[C@@H]4C[C@H](O)CC[C@]4(C)[C@H]3CC[C@]12C [CDCA, chenodeoxycholic acid] | 1.8 ± 0.4 | 308 ± 56.8 |  |  |
|  |  |  | C[C@H](CCC(=O)NCCC[N+](C)(C)CCCS(=O)(=O)[O-])[C@H]1CC[C@H]2[C@@H]3[C@H](O)C[C@@H]4C[C@H](O)CC[C@]4(C)[C@H]3C[C@H](O)[C@]12C [CHAPS, 3-[(3-cholamidopropyl)dimethylammonio]-1-propanesulfonate] | 3.7 ± 2.1 | 151 ± 20.8 | 300 µM | Modulation of basal ATPase activity at 10 μM (human ABCB4 [1]; [5]): –7.1 ± 3.6%; Modulation of basal ATPase activity at 50 μM (human ABCB4 [1]; 50 μM, basal = 0%, negative = inhibition, duplicates): –9.9 ± 5.0%; Max. Stimulation (%) (human ABCB4 [1]; [6]): 142.6 ± 11.5%; Decrease of DOPC-stimulated ATPase activity (human ABCB4 [2]): approximately 50%; Relative ATPase activity in the presence of 300 μM DOPC (human ABCB4 [2]; DOPC alone set to 100%): 52.6 ± 6.5% |
|  |  |  | C[C@H](CCC(=O)NCCC[N+](C)(C)CC(O)CS(=O)(=O)[O-])[C@H]1CC[C@H]2[C@@H]3[C@H](O)C[C@@H]4C[C@H](O)CC[C@]4(C)[C@H]3C[C@H](O)[C@]12C (stereo partly shown) [CHAPSO, 3-[(3-cholamidopropyl)dimethylammonio]-2-hydroxy-1-propanesulfonate] | 4.3 ± 2.5 | 125 ± 23.3 | 300 µM | Modulation of basal ATPase activity at 10 μM (human ABCB4 [1]; [5]): –7.5 ± 8.6%; Max. Stimulation (%) (human ABCB4 [1]; [6]): 145.4 ± 15.3%; Decrease of DOPC-stimulated ATPase activity (human ABCB4 [2]): approximately 50%; Relative ATPase activity in the presence of 300 μM DOPC (human ABCB4 [2]; DOPC alone set to 100%): 48.7 ± 3.0% |
|  |  |  | CC(C)CCC[C@@H](C)[C@H]1CC[C@H]2[C@@H]3CC=C4C[C@@H](O)CC[C@]4(C)[C@H]3CC[C@]12C [Cholesterol] |  |  |  | ATPase activity at cholesterol:DOPC ratio 1.5:1 (human ABCB4 [2]; 300 μM DOPC, DOPC alone set to 100%): 190.4 ± 9.4%; Emax (human ABCB4 [2]; 300 μM DOPC, DOPC alone set to 100%, cholesterol:DOPC ratios 1-2, read-out: Maximal stimulation of ATPase activity by cholesterol (vmax)): 204 ± 5.9%; ATPase activity at cholesterol:DOPC molar ratio 0.04 (human ABCB4 [2]; 300 μM DOPC, DOPC alone set to 100%, considered no stimulation): 119%; EC50 (human ABCB4 [2]; cholesterol mixed with 300 μM DOPC, molar ratios 0-3.3 (cholesterol to DOPC)): 210 µM; Slope (human ABCB4 [2]; cholesterol mixed with 300 μM DOPC, allosteric sigmoidal fit): 7.8 ± 2.2; Max. Stimulation (%) (human ABCB4 [2]; cholesterol mixed with 300 μM DOPC, stimulation in addition to DOPC stimulation): 103.5 ± 5.9% |
| 214 ± 13.3 | 100 ± 7.5 | 1.4 mM and 1.4 ± 0.1 mM | C[C@H](CCC(=O)O)[C@H]1CC[C@H]2[C@@H]3CC[C@@H]4C[C@H](O)CC[C@]4(C)[C@H]3C[C@H](O)[C@]12C [DCA, deoxycholic acid] | 2.6 ± 0.6 | 75 ± 7.3 | 300 µM |  |
|  |  |  | CCCCCCCC/C=C\CCCCCCCC(=O)OC[C@H](COP(=O)([O-])OCC[N+](C)(C)C)OC(=O)CCCCCCC/C=C\CCCCCCCC [DOPC, 1,2-dioleoyl-sn-glycero-3-phosphocholine] |  |  |  | ATPase activity of nonlabeled protein (human ABCB4 [2]; presence of 300 μM DOPC, 5 μg protein): 488.6 ± 44.5 nmol/min/mg; Specific ATPase activity of ABCB4 (Bodipy-labeled activity subtracted) (human ABCB4 [2]; presence of 300 μM DOPC, basal 132.1 ± 13.0): 275.8 ± 24.8 nmol/min/mg; ATPase activity of ABCB4-Bodipy (Bodipy-labeled protein) (human ABCB4 [2]; with 300 μM DOPC, non-ABCB4-mediated background): 212.8 ± 19.7 nmol/min/mg |
| 733 ± 24 | 171 ± 6.9 | 4.1 mM and 4.1 ± 0.1 mM | C[C@H](CCC(=O)NCC(=O)O)[C@H]1CC[C@H]2[C@@H]3[C@H](O)C[C@@H]4C[C@H](O)CC[C@]4(C)[C@H]3C[C@H](O)[C@]12C [GCA] | 2.9 ± 0.4 | 177 ± 9.9 | approximately 400 μM |  |
|  |  | Precipitate ^a | C[C@H](CCC(=O)O)[C@H]1CC[C@H]2[C@@H]3CC[C@@H]4C[C@H](O)CC[C@]4(C)[C@H]3CC[C@]12C [LCA, lithocholic acid] |  |  |  |  |

| SMILES | Emax (human ABCB4 [1]; [4]) [%] | activity at 1000 µM (human ABCB4 [2]; DOPC alone set to 100%) [%] | Critical micelle concentration (cmc) [3] | Slope (human ABCB4 [1]) | EC50 (human ABCB4 [1]; read-out: EC50) [µM] | Concentration at which maximal stimulation (plateau) of ATPase activity is reached (human ABCB4 [1]) | other results |
| --- | --- | --- | --- | --- | --- | --- | --- |
| C[C@H](CCC(=O)O)[C@H]1CC[C@H]2[C@@H]3[C@H](O)C[C@@H]4C[C@H](O)CC[C@]4(C)[C@H]3C[C@H](O)[C@]12C [CA, cholic acid] | 310 ± 16.4 | 117 ± 8.9 | 2.3 mM and 2.3 ± 0.2 mM | 2.8 ± 0.3 | 390 ± 22.7 |  |  |
| C[C@H](CCC(=O)NCC(=O)O)[C@H]1CC[C@H]2[C@@H]3[C@H](O)C[C@@H]4C[C@H](O)CC[C@]4(C)[C@H]3CC[C@]12C [GCDCA] | 223 ± 10 | 127 ± 2.8 | 2.6 mM and 2.6 ± 0.1 mM | 3.9 ± 1.5 | 77.8 ± 7.5 | approximately 150 μM |  |
| C[C@H](CCC(=O)NCCS(=O)(=O)O)[C@H]1CC[C@H]2[C@@H]3[C@H](O)C[C@@H]4C[C@H](O)CC[C@]4(C)[C@H]3C[C@H](O)[C@]12C [TCA, taurocholic acid] |  |  | 3.5 mM and 3.5 ± 0.1 mM | 2.6 ± 0.5 |  | approximately 400 μM | EC50 (human ABCB4 [1]; EC50 (μM)): 114 µM; Emax (human ABCB4 [1]; read-out: Max. Stimulation (%), vmax of allosteric sigmoidal fit (Equation 1)): 539 ± 24% |
